Ten compounds from patent publication US5053424A, “2-(N-acyl)amino-6,7-dimethoxy tetralines, and pharmaceutical compositions having antihypertensive activity containing same” (Sigma-Tau Industrie Farmaceutiche Riunite S.p.A., priority 1989, dated 1991) can be followed below.

In one data set the test system is Normotensive cats. Nature of the data set: Measure of arterial pressure in cats (hypotensive effect in normotensive cats). For EFFECT DURATION (hypotension in normotensive cats): key: S: short; A: average; L: long. Format: in vivo. To be noted: via crural vein.
Data set [1] in a line: LD50 in mice (Weil's method). To be noted: mouse, in vivo; intravenous route, male Albino Swiss mice. The method, then:
LD50 was assessed according to the Carrol S. WEIL's method (Biometrics, pages […] (1952)) on male Albino Swiss mice weighing 22-24 g. The compounds dissolved in […] saline solution were administered via the intravenous route.

The nature of the next data set: Tolerability in mice. Details: species or system mice (male albino Swiss). To be noted: mouse, in vivo, read-out: TOLERABILITY dose. The method, then:
Male albino Swiss mice weighing 22-24 g were used in this test.
One group of animals (4/dose) which had been kept fasting for 18 hours was orally administered the compounds dissolved in twice distilled water. The same compounds dissolved in saline at pH=7 were intravenously injected in a further group of animals which had free access to food and drinking water. All of the animals were monitored for 7 days.

In a further data set the test system is SHR hypertensive rats. The experiment in a line: Non-invasive measure of arterial pressure in genetically hypertensive rats (SHR). Format: in vivo, rats (male SHR). The method, then: (b) Non-invasive measure of arterial pressure in genetically hypertensive rats.
Male SHR rats (Charles River) of 3-4 months were used in this test. The compounds listed were dissolved in either 0.9% saline or twice distilled water and administered via the oral route or i.p. (50-100 mg/5 ml/kg).
The animals, housed in individual cages at 23° C. and 60% humidity, had free access to food and drinking water. A BP recorder (Letica) equipped with a two-way polygraph was used. The systolic and diastolic pressure and the heart rate were recorded. The animals, a few days before the test began, were accustomed to be constrained on a heating plate (at 38° C.±1° C.) for 20 minutes).
During the pre-tests, the assessments were made at time 0 (8^30 -9^30 a.m.) and after 1, 2 and 4 hours.
Every assessment was the average of 3 measures and the maximum residence time of the animal in the thermostatized chamber (for the whole test duration) was 40 minutes.
Student's "t" test was used for assessing the difference with respect to the control group and its own 0 time.

[2] abbreviates: iv, e.p. (head), intravenously injected in saline pH 7, monitored 7 days.
[3] abbreviates: os (oral), fasted mice, monitored 7 days.

The structures appear in SMILES notation. Where a name gives a salt, the structure may show the parent alone. Read-outs that look alike come from different tables or passages of the source.

Experimental for Normotensive cats: (a) Measure of arterial pressure in cats.
Normotensive cats of either sex weighing 2.5-3.5 kgs were used in this test.
The animals fasted for 18 hours were anesthetized with Na Nembutal (30 mg/kg) and ethyl urethane (300 mg/kg i.p.). The crural vein and artery of the animals were cannulated, the former for administering the compounds, the latter for monitoring the arterial pressure. The arterial pressure was measured via a mercury gauge connected to a rotating kymograph.
The compounds were dissolved in sterile 0.9% saline and administered at physiological pH in a 0.5 ml/kg volume.

As for `COc1cc2c(cc1OC)CC(NC(=O)C(N)Cc1c[nH]c3ccccc13)CC2` (stereo not shown) [ST 580, 2-N-tryptophylamino-6,7-dimethoxy tetraline hydrochloride], the “HYPOTENSIVE EFFECT IN NORMOTENSIVE CATS, hypotension” value in the data set on Normotensive cats (dose 1-4 mg/kg) is recorded as 0 mm Hg. In data set [1], this compound yielded an LD50 of 66.7 mg/kg. The MTD at 168 h in the data set “Tolerability in mice” (setting [2]) and in the data set “Tolerability in mice” (setting [3]) was greater than 50 mg/kg throughout.
As for `COc1cc2c(cc1OC)CC(NC(=O)C(N)CCSC)CC2` (stereo not shown) [ST 581, 2-N-methionylamino-6,7-dimethoxy tetraline hydrochloride], the “HYPOTENSIVE EFFECT IN NORMOTENSIVE CATS, hypotension” value in the data set with Normotensive cats (dose 1-4 mg/kg) was 0 mm Hg. In data set [1], this compound showed an LD50 of 74 mg/kg. Further, the MTD at 168 h in the data set “Tolerability in mice” (setting [2]) and in “Tolerability in mice” (setting [3]) was greater than 50 mg/kg each time.
For `COc1cc2c(cc1OC)CC(NC(=O)CN)CC2` (stereo not shown) [ST 582, 2-N-glycylamino-6,7-dimethoxy tetraline hydrochloride], the “EFFECT DURATION (hypotension in normotensive cats)” value (“EFFECT DURATION” for short) in the data set with Normotensive cats (dose 10 mg/kg) was “S”. Besides, in data set [1], the LD50 was determined as 72.3 mg/kg. Further, the “ANTIHYPERTENSIVE EFFECT IN SHR HYPERTENSIVE RATS” value is recorded as -37 mm Hg in the data set with SHR hypertensive rats (50 mg/kg i.p., 1st h); -27 mm Hg in the data set on SHR hypertensive rats (50 mg/kg i.p., 2nd h); 0 mm Hg in the data set on SHR hypertensive rats (50 mg/kg i.p., 4th h). For the same compound, the MTD at 168 h in the data set “Tolerability in mice” (setting [2]) and in “Tolerability in mice” (setting [3]) was greater than 50 mg/kg throughout.
The compound `COc1cc2c(cc1OC)CC(NC(=O)[C@H](C)NC(=O)[C@@H](N)CC(C)C)CC2.Cl` (stereo partly shown) [ST 584, 2-(N-leucylalanyl)amino-6,7-dimethoxy tetraline hydrochloride] gave an LD50 in data set [1] of 167 mg/kg. Besides, the “ANTIHYPERTENSIVE EFFECT IN SHR HYPERTENSIVE RATS” value with SHR hypertensive rats (dose "10C" [sic] mg/kg os, 1st h) is on record as -12 mm Hg; in the data set with SHR hypertensive rats (dose "10C" [sic] mg/kg os, 2nd h) it was 0 mm Hg; in the data set on SHR hypertensive rats (dose "10C" [sic] mg/kg os, 4th h) it was 0 mm Hg. Also, the MTD at 168 h in “Tolerability in mice” (setting [2]) and in the data set “Tolerability in mice” (setting [3]) was greater than 50 mg/kg throughout.
For the compound `COc1cc2c(cc1OC)CC(NC(=O)[C@H](C)NC(=O)[C@@H](N)Cc1c[nH]c3ccccc13)CC2` (stereo partly shown) [ST 585, 2-(N-tryptophylalanyl)amino-6,7-dimethoxy tetraline hydrochloride], the “HYPOTENSIVE EFFECT IN NORMOTENSIVE CATS, hypotension” value with Normotensive cats (dose 4 mg/kg) is on record as 0 mm Hg. Further, the “EFFECT DURATION” value in the data set with Normotensive cats (dose 10 mg/kg) is listed as “S”. In addition, the LD50 in data set [1] is 115 mg/kg. The MTD at 168 h in the data set “Tolerability in mice” (setting [2]) and in the data set “Tolerability in mice” (setting [3]) was greater than 50 mg/kg in each case.
For the compound `COc1cc2c(cc1OC)CC(NC(=O)[C@H](C)NC(=O)[C@@H](N)CCSC)CC2.Cl` (stereo partly shown) [ST 586, 2-(N-methionylalanyl)amino-6,7-dimethoxy tetraline hydrochloride], in the data set on Normotensive cats (dose 2 mg/kg), the “HYPOTENSIVE EFFECT IN NORMOTENSIVE CATS, hypotension” value was found to be 0 mm Hg. Besides, in the data set on Normotensive cats (dose 4 mg/kg), the “EFFECT DURATION” value is “S”. The compound also gave an LD50 in data set [1] of 229 mg/kg. The MTD at 168 h in “Tolerability in mice” (setting [2]) and in the data set “Tolerability in mice” (setting [3]) was greater than 50 mg/kg each time.
Consider `COc1cc2c(cc1OC)CC(NC(=O)C(N)Cc1ccc(O)cc1)CC2` (stereo not shown) [ST 589, 2-N-tyrosyl-6,7-dimethoxy tetraline hydrochloride], for which the “EFFECT DURATION” value with Normotensive cats (dose 1 mg/kg) and in the data set on Normotensive cats (dose 2 mg/kg) was “S” each time. In data set [1], this compound yielded an LD50 of 218 mg/kg. The “ANTIHYPERTENSIVE EFFECT IN SHR HYPERTENSIVE RATS” value is listed as -26 mm Hg in the data set with SHR hypertensive rats (100 mg/kg os, 1st h); -20 mm Hg with SHR hypertensive rats (100 mg/kg os, 2nd h); 0 mm Hg in the data set on SHR hypertensive rats (100 mg/kg os, 4th h). Also, the MTD at 168 h in “Tolerability in mice” (setting [2]) and in the data set “Tolerability in mice” (setting [3]) was greater than 50 mg/kg in each case.
With `CCN(C(=O)[C@H](C)NC(=O)[C@@H](N)Cc1c[nH]c2ccccc12)C1CCc2cc(OC)c(OC)cc2C1` (stereo partly shown) [ST 604, 2-(N-ethyl,N-tryptophylalanyl)amino-6,7-dimethoxy tetraline hydrochloride], the “HYPOTENSIVE EFFECT IN NORMOTENSIVE CATS, hypotension” value with Normotensive cats (dose 1-4 mg/kg) was 0 mm Hg. This compound also displayed an LD50 in data set [1] of 85 mg/kg. The MTD at 168 h in “Tolerability in mice” (setting [2]) and in “Tolerability in mice” (setting [3]) was greater than 50 mg/kg each time.
Turning to `COc1cc2c(cc1OC)CC(NC(=O)[C@H](C)NC(=O)[C@@H](N)Cc1ccc(O)cc1)CC2.Cl` (stereo partly shown) [ST 605, 2-(N-tyrosylalanyl)amino-6,7-dimethoxy tetraline hydrochloride], in the data set on Normotensive cats (dose 1 mg/kg), the “HYPOTENSIVE EFFECT IN NORMOTENSIVE CATS, hypotension” value stood at 0 mm Hg. In addition, the “EFFECT DURATION” value in the data set on Normotensive cats (dose 2 mg/kg) is listed as “S”. In data set [1], this compound registered an LD50 of 72.3 mg/kg. Besides, the “ANTIHYPERTENSIVE EFFECT IN SHR HYPERTENSIVE RATS” value with SHR hypertensive rats (100 mg/kg e.p., 1st h) was -40 mm Hg; in the data set on SHR hypertensive rats (100 mg/kg e.p., 2nd h), -38 mm Hg; with SHR hypertensive rats (100 mg/kg e.p., 4th h) it was -29 mm Hg; with SHR hypertensive rats (100 mg/kg os, single administration (*), 2nd h), -28 mm Hg; with SHR hypertensive rats (100 mg/kg os, single administration (*), 4th h) it was -31 mm Hg; in the data set with SHR hypertensive rats (repeated administration (5 days) (**), dose column "--" below 100 os, 2nd h), -35 mm Hg. Further, the “ANTIHYPERTENSIVE EFFECT IN SHR HYPERTENSIVE RATS” value in the data set with SHR hypertensive rats (repeated administration (5 days) (**), dose column "--" below 100 os, 4th h) is -17 mm Hg. Moreover, the MTD at 168 h in “Tolerability in mice” (setting [2]) and in the data set “Tolerability in mice” (setting [3]) was greater than 50 mg/kg in each case.
In the case of `CCN(C(=O)[C@H](C)NC(=O)[C@@H](N)CCSC)C1CCc2cc(OC)c(OC)cc2C1` (stereo partly shown) [ST 606, 2-(N-ethyl,N-methionylalanyl)amino-6,7-dimethoxy tetraline hydrochloride], the “EFFECT DURATION” value with Normotensive cats (dose 1 mg/kg), in the data set on Normotensive cats (dose 2 mg/kg) and in the data set with Normotensive cats (dose 4 mg/kg) was “S” each time. In data set [1], this compound displayed an LD50 of 150 mg/kg. The MTD at 168 h in “Tolerability in mice” (setting [2]) and in the data set “Tolerability in mice” (setting [3]) was greater than 50 mg/kg throughout.

The term LD50 denotes the dose at which mortality reaches 50%.
